One block for each compound: values may come before it.
How the values were obtained:
[1] = Hydroxyl radical production from H2O2 by the enzymes or free copper, EPR of DMPO-OH adduct; format: biochemical; conditions: for hydroxyl radical production (double integration of DMPO-OH signal): 1.25 μM protein or 2.5 μM CuSO4, 45 mM DMPO, 30 mM H2O2, pH 7.4
Method: Hydroxyl radical formation by mutant and wild type CuZnSODs was determined by measuring the amount of adduct formed when the radical scavenging agent 5,5'-dimethyl-1-pyrroline N-oxide (DMPO) was added to the hydroxyl radical forming reaction. The amount of the DMPO-OH radical adduct formed was determined by measurement of the unique EPR spectra signals of the adduct.
30 mM hydrogen peroxide was injected to start the reaction. […] EPR spectra were recorded on a Bruker ER 200 D at room temperature, operated at 9.5 GHz with a modulation frequency of 100 KHz.
The samples were prepared and handled, and all measurements executed, in a strictly oxygen-free atmosphere, to prevent radical scavenging by molecular oxygen. Buffers were treated with Chelex 100 (Biorad) to eliminate the possibility of contamination by trace metals. […] An aqueous flat cell (Wilmad) was used to hold the samples.

[2] = test system: CSM 14.1 cells expressing mutant CuZnSODs A4V, G37R, G41D, G85R; assay: Neural cell culture model of FALS: apoptosis/viability after serum withdrawal; format: cell-based, rat; conditions: DDC 25-100 μM, all four mutants
Method: (§1) The conditionally-immortalized rat nigral neural cell line CSM 14.1 (M. Durand, et al., Soc. Neurosci. Abs. 16:40 (1990); and L. T. Zhong, et al., Proc. Natl. Acad. Sci. U.S.A. 90:4533 (1993)) was transfected with vectors carrying wild type CuZnSOD or the mutant CuZnSODs A4V, G37R, G41D, or G85R.
(§2) Next the […] efficacy of DDC was tested. Temperature-sensitive nigral neural cells (SCM 14.1) were transfected with wild type and A4V, G37R, G85R, and G41D mutant CuZnSOD constructs by methods described previously (Rabizadeh (1995), supra). Following selection in puromycin (7 μg/ml), cells were plated onto 96-well plates.
(§3) This was calculated as follows:
(§4) viability=[Vm(x)-Vm(0)]/[Vc(0)-Vm(0)]
(§5) Standard errors were computed by the delta method for computing the asymptotic standard error for the estimate of a nonlinear function (D. Colquhoun, Lectures on Biostatistics (Clarendon Press, 1971) pp. 39-42).

[3] = test system: CSM 14.1 cells overexpressing wild type CuZnSOD; assay: as above; format: cell-based, rat
Method: as §1, §2, §3, §4, §5

CSM 14.1 cells = assay: Toxicity of DDC in transfected neural cells, all groups; format: cell-based, rat; conditions: DDC 1 mM or greater
Method: as §1, §2

Compound: O=S(=O)([O-])[O-].[Cu+2] [CuSO4]
hydroxyl radical production (double integration of DMPO-OH signal) [1]: 1.9 µM

Compound: CCN(CC)C(=S)S [DDC, Diethyldithiocarbamate]
inhibition of apoptosis induced by mutant CuZnSODs [2]: 30-70%
effect on viability ([3]; DDC 100 μM, 60 hours, serum-free media): no significant effect
effect on cell viability ([3]; DDC 500 μM): decreased the viability
effect on apoptosis ([3]; DDC 25-100 μM, serum withdrawal): no effect
toxicity in all groups (CSM 14.1 cells): toxic

hydroxyl radical production (double integration of DMPO-OH signal) [1]: 15.6 µM
DMPO-OH signal relative to the wild type CuZnSOD signal ([1]; fully metallated enzyme, mean ± spread): 3.0±1.1 times
range of DMPO-OH signal relative to the wild type CuZnSOD signal ([1]; fully metallated enzyme, range over experiments): 2.1-5.7 times
Compound: CuZnSOD mutant A4V: FALS-associated mutant human CuZnSOD A4V, recombinant, expressed in yeast

hydroxyl radical production (double integration of DMPO-OH signal) [1]: 6.5 µM
Compound: CuZnSOD mutant G93A: FALS-associated mutant human CuZnSOD G93A, recombinant, expressed in yeast

hydroxyl radical production (double integration of DMPO-OH signal) [1]: 3.2 µM
Compound: wild type CuZnSOD: recombinant human wild type copper-zinc superoxide dismutase expressed in Saccharomyces cerevisiae
